# Target: human GPR17 short isoform (Homo sapiens, UniProt Q13304)
# Test: GPR17 cAMP assay (hGPR17 cAMP, TR-FRET, antagonist mode)
# Type: cell-based
# Settings: CHO-K1 cells stably expressing human GPR17 short isoform; EC80 of agonist MDL29,951; forskolin 15 μM; 30 min at room temperature
# Method: CHO-K1 cells stably expressing vector containing untagged human GPR17 short isoform (Roche) were cultured at 37° C./5% CO2 in DMEM (Dulbecco's Modified Eagle Medium): F-12 (1:1) supplemented with 10% foetal bovine serum and 400 μg/ml Geneticin.
# Changes in intracellular cyclic adenosine monophosphate (cAMP) levels were quantified using the Nano-TRF Detection Assay kit (Roche Diagnostics, Cat. No. 05214386001). This assay allows for direct cAMP quantification in a homogeneous solution. CAMP is detected based on time-resolved fluorescence energy transfer (TR-FRET) and competitive binding of ruthenylated cAMP and endogenous cAMP to an anti-cAMP monoclonal antibody labeled with AlexaFluor-700. The Ruthenium complex serves as the FRET donor and transfers energy to AlexaFluor-700. The FRET signal is inversely proportional to the CAMP concentration.
# CHO-GPR17S cells were detached with Accutase and resuspended in assay buffer consisting of Hank's Balanced Salt Solution (HBSS), 10 mM HEPES (4-(2-hydroxyethyl) piperazine-1-ethanesulfonic acid solution) and 0.1% bovine serum albumin (pH 7.4). The cells were seeded in black 384-well plates (Corning) at a density of 10′000 cells/20 μl assay buffer until the addition of compounds.
# Test antagonist compounds were serially diluted in dimethyl sulfoxide (DMSO) and spotted in 384-well plates. The compounds were then diluted in HBSS buffer supplemented with an EC80 concentration of MDL29,951 (3-(2-Carboxy-4,6-dichloroindol-3-yl) propionic acid) (GPR17 agonist) plus 3-Isobutyl-1-methylxanthine (IBMX) (0.5 mM final concentration) and added to the cells at room temperature. Forskolin (15 μM final concentration) was added 5 minutes after the test compounds and the cells were incubated at room temperature for 30 minutes. The assay was stopped by adding cAMP detection mix (containing detergents for cell lysis) for 90 minutes at room temperature.
# Cellular cAMP was measured using a Paradigm reader (Molecular Devices). The raw data was used to calculate the FRET signal based on the assay's P-factor as per cAMP kit instructions. The data was normalized to the maximal activity of a reference antagonist and dose response curves were fitted to the percent activity of the test compounds using a sigmoidal dose response model (Genedata Screener).
# Chain of human GPR17 short isoform (Q13304 29-367): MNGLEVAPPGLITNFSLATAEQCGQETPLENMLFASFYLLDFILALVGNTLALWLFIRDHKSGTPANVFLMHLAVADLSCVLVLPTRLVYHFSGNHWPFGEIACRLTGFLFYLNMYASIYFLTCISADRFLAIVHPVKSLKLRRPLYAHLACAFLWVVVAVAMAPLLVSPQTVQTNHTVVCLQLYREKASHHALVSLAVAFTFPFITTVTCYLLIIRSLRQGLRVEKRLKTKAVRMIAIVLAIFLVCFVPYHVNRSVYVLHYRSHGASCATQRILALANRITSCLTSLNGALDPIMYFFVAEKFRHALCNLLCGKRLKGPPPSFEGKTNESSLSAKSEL
row,Compound,IC50 [nM]
1,"COc1nc(NS(=O)(=O)c2cnn3cc(Br)ccc23)c(F)cc1OCC(F)F [Example 81, 6-bromo-N-[5-(2,2-difluoroethoxy)-3-fluoro-6-methoxy-2-pyridyl]pyrazolo[1,5-a]pyridine-3-sulfonamide]",49
2,"COc1nc(OCC(F)F)c(F)cc1NS(=O)(=O)c1cnc2n1CC[C@@H](C)C2 [Example 108, (7R)—N-[6-(2,2-difluoroethoxy)-5-fluoro-2-methoxy-3-pyridyl]-7-methyl-5,6,7,8-tetrahydroimidazo[1,2-a]pyridine-3-sulfonamide]",16
3,"COc1nc(OCC(F)F)c(F)cc1NS(=O)(=O)c1cnn2c1CCC(C)C2 (stereo not shown) [Example 83, N-[6-(2,2-difluoroethoxy)-5-fluoro-2-methoxy-3-pyridyl]-6-methyl-4,5,6,7-tetrahydropyrazolo[1,5-a]pyridine-3-sulfonamide]",100
4,"COc1nc(NS(=O)(=O)c2cnc3cc(Cl)ccn23)nc(OC)c1OCCF [Example 89, 7-chloro-N-[5-(2-fluoroethoxy)-4,6-dimethoxy-pyrimidin-2-yl]imidazo[1,2-a]pyridine-3-sulfonamide]",139
5,"COc1nc(NS(=O)(=O)c2cnc3cc(Cl)ccn23)c(F)cc1C1CC1 [Example 44, 7-chloro-N-(5-cyclopropyl-3-fluoro-6-methoxy-2-pyridyl)imidazo[1,2-a]pyridine-3-sulfonamide]",76
6,"N#CCc1cc(F)c(NS(=O)(=O)c2cnc3c(F)c(Cl)ccn23)cc1F [Example 68, 7-chloro-N-[4-(cyanomethyl)-2,5-difluoro-phenyl]-8-fluoro-imidazo[1,2-a]pyridine-3-sulfonamide]",329
7,"COc1cc(CC#N)c(F)cc1NS(=O)(=O)c1cnc2nc(C3CC3)ccn12 [Example 18, N-[4-(cyanomethyl)-5-fluoro-2-methoxy-phenyl]-7-cyclopropyl-imidazo[1,2-a]pyrimidine-3-sulfonamide]",19
8,"COc1nc(OCC(F)F)c(F)cc1NS(=O)(=O)c1cnc2n1CCCC2C (stereo not shown) [Example 50, N-[6-(2,2-difluoroethoxy)-5-fluoro-2-methoxy-3-pyridyl]-8-methyl-5,6,7,8-tetrahydroimidazo[1,2-a]pyridine-3-sulfonamide]",98
9,"COc1nc(OCC(F)F)c(F)cc1NS(=O)(=O)c1cnc2n1CC[C@H](C)C2 [Example 109, (7S)—N-[6-(2,2-difluoroethoxy)-5-fluoro-2-methoxy-3-pyridyl]-7-methyl-5,6,7,8-tetrahydroimidazo[1,2-a]pyridine-3-sulfonamide]",35
10,"O=S(=O)(Nc1cc(F)c(OC(F)F)cc1F)c1cnn2cc(Br)ccc12 [Example 85, 6-bromo-N-[4-(difluoromethoxy)-2,5-difluoro-phenyl]pyrazolo[1,5-a]pyridine-3-sulfonamide]",251
11,"COc1nc(OCC(F)F)c(F)cc1NS(=O)(=O)c1cnc2n1CCC(OC)C2 (stereo not shown) [Example 62, N-[6-(2,2-difluoroethoxy)-5-fluoro-2-methoxy-3-pyridyl]-7-methoxy-5,6,7,8-tetrahydroimidazo[1,2-a]pyridine-3-sulfonamide]",217
12,"N#CCc1cc(F)c(NS(=O)(=O)c2cnn3cc(Br)ccc23)cc1F [Example 92, 6-bromo-N-[4-(cyanomethyl)-2,5-difluoro-phenyl]pyrazolo[1,5-a]pyridine-3-sulfonamide]",115
13,"COc1cc(CC#N)c(F)cc1NS(=O)(=O)c1cnc2cc(C)ccn12 [Example 20, N-[4-(cyanomethyl)-5-fluoro-2-methoxy-phenyl]-7-methyl-imidazo[1,2-a]pyridine-3-sulfonamide]",21
14,"Cc1ccn2c(S(=O)(=O)Nc3cc(F)c(CC#N)cc3F)cnc2n1 [Example 76, N-[4-(cyanomethyl)-2,5-difluoro-phenyl]-7-methyl-imidazo[1,2-a]pyrimidine-3-sulfonamide]",1030

# Next, values leading:
row,IC50 [nM],Compound
1,9,"COc1nc(OC(F)F)c(F)cc1NS(=O)(=O)c1cnc2cc(Br)ccn12 [Example 8, 7-bromo-N-[6-(difluoromethoxy)-5-fluoro-2-methoxy-3-pyridyl]imidazo[1,2-a]pyridine-3-sulfonamide]"
2,38,"COc1nc(OCC(F)F)c(F)cc1NS(=O)(=O)c1cnc2cc(C(F)(F)F)ccn12 [Example 31, N-[6-(2,2-difluoroethoxy)-5-fluoro-2-methoxy-3-pyridyl]-7-(trifluoromethyl)imidazo[1,2-a]pyridine-3-sulfonamide]"
3,132,"O=S(=O)(Nc1cc(F)c(OC(F)F)nc1OC(F)F)c1cnc2nc(C3CC3)ccn12 [Example 56, N-[2,6-bis(difluoromethoxy)-5-fluoro-3-pyridyl]-7-cyclopropyl-imidazo[1,2-a]pyrimidine-3-sulfonamide]"
4,83,"COc1nc(NS(=O)(=O)c2cnc3cc(Br)ccn23)c(F)cc1OCCF [Example 47, 7-bromo-N-[3-fluoro-5-(2-fluoroethoxy)-6-methoxy-2-pyridyl]imidazo[1,2-a]pyridine-3-sulfonamide]"
5,38,"COc1nc(OCC(F)F)c(F)cc1NS(=O)(=O)c1cnc2cc(C(C)(C)O)ccn12 [Example 106, N-[6-(2,2-difluoroethoxy)-5-fluoro-2-methoxy-3-pyridyl]-7-(1-hydroxy-1-methyl-ethyl)imidazo[1,2-a]pyridine-3-sulfonamide]"
6,176,"COc1nc(OCC(F)F)c(F)cc1NS(=O)(=O)c1cnc2cc(C#N)ccn12 [Example 59, 7-cyano-N-[6-(2,2-difluoroethoxy)-5-fluoro-2-methoxy-3-pyridyl]imidazo[1,2-a]pyridine-3-sulfonamide]"
7,18,"COc1ccn2c(S(=O)(=O)Nc3cc(F)c(OCC(F)F)nc3OC)cnc2c1 [Example 15, N-[6-(2,2-difluoroethoxy)-5-fluoro-2-methoxy-3-pyridyl]-7-methoxy-imidazo[1,2-a]pyridine-3-sulfonamide]"
8,492,"COc1nc(OCC(F)F)c(F)cc1NS(=O)(=O)c1cnc2nc(C3COC3)ccn12 [Example 103, N-[6-(2,2-difluoroethoxy)-5-fluoro-2-methoxy-3-pyridyl]-7-(oxetan-3-yl)imidazo[1,2-a]pyrimidine-3-sulfonamide]"
9,23,"COc1nc(NS(=O)(=O)c2cnc3cc(Cl)ccn23)c(F)cc1CC(F)F [Example 24, 7-chloro-N-[5-(2,2-difluoroethyl)-3-fluoro-6-methoxy-2-pyridyl]imidazo[1,2-a]pyridine-3-sulfonamide]"
10,270,"COc1nc(OCC(F)F)c(F)cc1NS(=O)(=O)c1cnc2c(C#N)c(OC(F)F)ccn12 [Example 65, 8-cyano-N-[6-(2,2-difluoroethoxy)-5-fluoro-2-methoxy-3-pyridyl]-7-(difluoromethoxy)imidazo[1,2-a]pyridine-3-sulfonamide]"
11,30,"COc1nc(NS(=O)(=O)c2cnc3cc(Br)ccn23)c(F)cc1OC(F)F [Example 26, 7-bromo-N-[5-(difluoromethoxy)-3-fluoro-6-methoxy-2-pyridyl]imidazo[1,2-a]pyridine-3-sulfonamide]"
12,393,"COc1nc(OCC(F)F)c(F)cc1NS(=O)(=O)c1cnc2c(C#N)cccn12 [Example 69, 8-cyano-N-[6-(2,2-difluoroethoxy)-5-fluoro-2-methoxy-3-pyridyl]imidazo[1,2-a]pyridine-3-sulfonamide]"
13,23,"COc1nc(NS(=O)(=O)c2cnc3nc(C4CC4)ccn23)c(F)cc1OC(F)F [Example 97, 7-cyclopropyl-N-[5-(difluoromethoxy)-3-fluoro-6-methoxy-2-pyridyl]imidazo[1,2-a]pyrimidine-3-sulfonamide]"
14,82,"COc1nc(NS(=O)(=O)c2cnc3cc(Br)ccn23)nc(OC)c1Br [Example 46, 7-bromo-N-(5-bromo-4,6-dimethoxy-pyrimidin-2-yl)imidazo[1,2-a]pyridine-3-sulfonamide]"
15,99,"COc1nc(OCC(F)F)c(F)cc1NS(=O)(=O)c1cnc2c(C#N)c(Cl)ccn12 [Example 52, 7-chloro-8-cyano-N-[6-(2,2-difluoroethoxy)-5-fluoro-2-methoxy-3-pyridyl]imidazo[1,2-a]pyridine-3-sulfonamide]"
16,42,"COc1nc(OCC(F)F)c(F)cc1NS(=O)(=O)c1cnc2c(C#N)c(C3CC3)ccn12 [Example 33, 8-cyano-7-cyclopropyl-N-[6-(2,2-difluoroethoxy)-5-fluoro-2-methoxy-3-pyridyl]imidazo[1,2-a]pyridine-3-sulfonamide]"
17,16,"COc1nc(OCC(F)F)c(F)cc1NS(=O)(=O)c1cnc2c(OC)c(Cl)ccn12 [Example 12, 7-chloro-N-[6-(2,2-difluoroethoxy)-5-fluoro-2-methoxy-3-pyridyl]-8-methoxy-imidazo[1,2-a]pyridine-3-sulfonamide]"

# Reference: patent US20260242372A1, “NOVEL IMIDAZOPYRIDINE AND PYRAZOLOPYRIDINE SULFONAMIDE DERIVATIVES” (Hoffmann-La Roche Inc., priority 2022, published 2026)
